Source: US10323078B2, “Isolated peptides and fragments thereof from fibrinogen for use as drugs, particularly in skin inflammatory diseases” (Universite Paris Descartes, priority 2015, dated 2019)

Columns and labels:
Assay type in all cases: cell-based, human
[1] = test system: HaCaT, NHDK, THP-1, MRC5 and HDF; assay: H2O2 production by cells stimulated with P. acnes, overall statement for the five cell lines; conditions: pretreatment of P. acnes strains with small peptide 2.5 to 20 μM; five cell lines and three strains tested
Experimental: FIG. 17: Dose-dependent inhibition of H2O2 production by fibroblast pre-treated by small Fg1-generated peptides and stimulated by P. acnes. MRC5 cell were incubated for 24 h with small peptides Fg1.1 (light gray bar), Fg1.2 (horizontal line bar), Fg1.3 (hatched bar), Fg1.4 (dark gray bar), Fg1.5 (dotted bar) at concentrations ranging from 2.5 to 20 μM. Measurement of hydrogen peroxide production was realized by spectrofluorometry as described in Materials and Methods. Controls experiments were done with unstimulated MRC5 cell (white bar) and MRC5 stimulated with P. acnes (black bar). Data are means±S.D. of three separate experiments. Statistical significance is indicated by * (P<0.05), ** (P<0.01), *** (P<0.001), and **** (P<0.0001), respectively.
(§1) All cells lines (5·10^4 to 10^5 cells/well) were seeded in 96-well plates (Corning Costar, Brumath, France) and treated as previously described. After stimulation, cells were washed three times in PBS and incubated with 100 μl per wells of 5 μM DHE (for determination of O2^●−) or 5 μM H2-DCFDA (for determination of H2O2) for 30 min as described previously and fluorescence intensity was recorded every hour over a period of 5 h. Fluorescence excitation/emission maxima were for DHE: 480/610 nm and for H2-DCFDA: 507/525 nm. At the end of the experiment, the number of adherent cells was evaluated by the crystal violet assay as described below. O2^●−, and H2O2 were assayed by spectrofluorimetry on a Fusion spectrofluorimeter (PackardBell, Paris, France). Levels of ROS were calculated in each sample as follows: reactive oxygen species rate (arbitrary units/min/10^6 cells)=(fluorescence intensity [arbitrary units] at T5h—fluorescence intensity [arbitrary units] at To/300 minutes/number of adherent cells as measured by the crystal violet assay, and were expressed as arbitrary unit (A.U.).
(§2) To assess the efficacy of the small Fg1-related peptide, the production of H2O2 by several cell lines (HaCaT, NHDK, THP-1, MRC5 and HDF) stimulated by three P. acnes strains 6919, RON and PIE was measured, in presence or not with the small peptides. The amount of H2O2 produced is compared to that produced by the stimulated cells with untreated bacteria. Production baseline is obtained by measuring H2O2 on unstimulated cells. The measurement of the production of H2O2 is performed by spectrofluorimetry in the presence of specific fluorochromes directly on the monolayer cell.
(§3) Two sets of experiments have been implemented: • I) The cells are stimulated (18 h at 37° C.) by P. acnes strains previously pretreated with Fg1.1, Fg1.2, Fg1.3, Fg1.4, and Fg1.5 small peptides at the final concentrations ranging from 2.5 to 20 μM for 1 h at 37° C.; • II) The cells are pretreated first with the five small peptides at the final concentrations ranging from 2.5 to 20 μM for 24 h at 37° C. and stimulated (18 h at 37° C.) by P. acnes strains.
FIG. 17 corresponds to the results obtained with the P. acnes RON strain on the fibroblast MRCS cell line and are representative of the results obtained with all P. acnes and cells lines tested (Table 6).

[2] = test system: ThP1 cells; assay: H2O2 production by P. acnes-stimulated ThP1; conditions: small peptides 2.5 to 20 μM
Experimental: (§4) For experiences of stimulation with P. acnes, cells were incubated with the P. acnes suspension adjusted at the appropriate concentration, pre-treated for 1 h at 37° C. or not with fibrinogen recombinant peptides Fg1 and Fg2 at the concentrations 0.87, 1.75, 3.5 or 7 μM for the desired period of time at 37° C. in 5% CO2.
as §1
(§5) To assess the efficacy of Fg1 recombinant peptide, the production of O2^∘− and H2O2 by HaCaT cells NHDK, THP-1, MRC5 and HDF stimulated by pretreated P. acnes strains 6919, RON and PIE was measured. The amount of ROS produced was compared to that produced by the stimulated cells with untreated bacteria. Production baseline was obtained by measuring ROS on unstimulated cells. The production of IL-1ß, IL-8, IL-12 and TNF-α was also measured in all conditions cited above. The measurement of the production of ROS is performed by spectrofluorimetry in the presence of specific fluorochromes directly on the monolayer cell. Measurement of cytokine production was performed in parallel on the cell culture supernatant.
(§6) Two sets of experiments were implemented: 1) The cells were stimulated (18 h at 37° C.) by P. acnes strains previously pretreated with Fg1 and Fg2 peptides at the final concentrations ranging from 0.87 to 7 μM for 1 h at 37° C.; and 2) The cells were pretreated first with Fg1 and Fg2 peptides at the final concentrations ranging from 0.87 to 7 μM for 24 h at 37° C. and stimulated (18 h at 37° C.) by P. acnes strains.
as §2, §3

[3] = test system: MRC5 cells; assay: H2O2 production by P. acnes-stimulated MRC5; conditions: small peptides 2.5 to 20 μM
[4] = test system: HaCaT cells; assay: H2O2 production by P. acnes-stimulated HaCaT (spectrofluorimetry, H2-DCFDA); conditions: small peptides 2.5 to 20 μM
Experimental: as §4, §1, §5, §6, §2, §3

[5] = test system: NHDK cells; assay: H2O2 production by P. acnes-stimulated NHDK; conditions: cells first pretreated, small peptides 2.5 to 20 μM
Experimental: as §4, §1, §5, §6, §2, §3

[6] = test system: HDF cells; assay: H2O2 production by P. acnes-stimulated HDF; conditions: cells first pretreated, small peptides 2.5 to 20 μM
Experimental: as §4, §1, §5, §6, §2, §3

[7] = P. acnes 6919, set I, bacteria first pretreated
[8] = P. acnes 6919, set II, cells first pretreated
[9] = P. acnes PIE, set I, bacteria first pretreated
[10] = P. acnes PIE, set II, cells first pretreated
[11] = P. acnes RON, set I, bacteria first pretreated
[12] = P. acnes RON, set II, cells first pretreated

For “YRARPAKAAATQKKVERKAPDAGGCLHADPDLGVLC (fragment Fg1.3) [small peptide generated from Fg1]”, the “Inhibition of H2O2 production” value [1] was “did not”.
“APSLRPAPPPISGGGYRARPAKAAATQKKV (fragment Fg1.5) [small peptide generated from Fg1, overlapping Fg1.2 and Fg1.3]” was tested, and the “Inhibition of H2O2 production” value [1] was “did not”.
“MKRMVSWSFHKLKTMKHLLLLLLCVFLVKSQGVND (fragment Fg1.1) [small peptide generated from Fg1]” was tested, and the “Inhibition of Hydrogen peroxide (H2O2) production” value (“Inhibition of Hydrogen peroxide” below) [2, 7] was “pos”, the “Inhibition of Hydrogen peroxide” value [2, 8] was “pos” and the “Inhibition of Hydrogen peroxide” value [2, 9] was “pos”. The “Inhibition of Hydrogen peroxide” value [2, 10] was “pos”, the “Inhibition of Hydrogen peroxide” value [2, 11] was “pos” and the “Inhibition of Hydrogen peroxide” value [2, 12] was “pos”. For the same sequence, the “Inhibition of Hydrogen peroxide” value [3, 7] was “pos”, the “Inhibition of Hydrogen peroxide” value [3, 8] was “pos” and the “Inhibition of Hydrogen peroxide” value [3, 9] was “pos”. For the same sequence, the “Inhibition of Hydrogen peroxide” value [3, 10] was “pos”, the “Inhibition of Hydrogen peroxide” value [3, 11] was “pos” and the “Inhibition of H2O2 production” value [1] was “inhibits the production of H2O2 in a dose-dependent manner”. For the same sequence, the “Inhibition of Hydrogen peroxide” value [4, 7] was “pos”, the “Inhibition of Hydrogen peroxide” value [4, 8] was “pos” and the “Inhibition of Hydrogen peroxide” value [4, 9] was “pos”. The “Inhibition of Hydrogen peroxide” value [4, 10] was “pos”, the “Inhibition of Hydrogen peroxide” value [4, 11] was “pos” and the “Inhibition of Hydrogen peroxide” value ([5]; P. acnes 6919, set II) was “pos”. The “Inhibition of Hydrogen peroxide” value ([5]; P. acnes PIE, set II) was “pos”, the “Inhibition of Hydrogen peroxide” value ([5]; P. acnes RON, set II) was “pos” and the “Inhibition of Hydrogen peroxide” value ([6]; P. acnes 6919, set II) was “pos”. For the same sequence, the “Inhibition of Hydrogen peroxide” value ([6]; P. acnes PIE, set II) was “pos” and the “Inhibition of Hydrogen peroxide” value ([6]; P. acnes RON, set II) was “pos”.
For “NEEGFFSARGHRPLDKKREEAPSLRPAPPPISGGG (fragment Fg1.2) [small peptide generated from Fg1]”, the “Inhibition of H2O2 production” value [1] was “did not”.
For “LLLCVFLVKSQGVNDNEEGFFSARGHRPLD (fragment Fg1.4) [small peptide generated from Fg1, overlapping Fg1.1 and Fg1.2]”, the “Inhibition of Hydrogen peroxide” value [2, 7] was “pos”, the “Inhibition of Hydrogen peroxide” value [2, 8] was “pos” and the “Inhibition of Hydrogen peroxide” value [2, 9] was “pos”. The “Inhibition of Hydrogen peroxide” value [2, 10] was “pos”, the “Inhibition of Hydrogen peroxide” value [2, 11] was “pos” and the “Inhibition of Hydrogen peroxide” value [2, 12] was “pos”. For the same sequence, the “Inhibition of Hydrogen peroxide” value [3, 7] was “pos”, the “Inhibition of Hydrogen peroxide” value [3, 8] was “pos” and the “Inhibition of Hydrogen peroxide” value [3, 9] was “pos”. For the same sequence, the “Inhibition of Hydrogen peroxide” value [3, 10] was “pos”, the “Inhibition of Hydrogen peroxide” value [3, 11] was “pos” and the “Inhibition of H2O2 production” value [1] was “inhibits the production of H2O2 in a dose-dependent manner”. For the same sequence, the “Inhibition of Hydrogen peroxide” value [4, 7] was “pos”, the “Inhibition of Hydrogen peroxide” value [4, 8] was “pos” and the “Inhibition of Hydrogen peroxide” value [4, 9] was “pos”. For the same sequence, the “Inhibition of Hydrogen peroxide” value [4, 10] was “pos”, the “Inhibition of Hydrogen peroxide” value [4, 11] was “pos” and the “Inhibition of Hydrogen peroxide” value ([5]; P. acnes 6919, set II) was “pos”. For the same sequence, the “Inhibition of Hydrogen peroxide” value ([5]; P. acnes PIE, set II) was “pos”, the “Inhibition of Hydrogen peroxide” value ([5]; P. acnes RON, set II) was “pos” and the “Inhibition of Hydrogen peroxide” value ([6]; P. acnes 6919, set II) was “pos”. The “Inhibition of Hydrogen peroxide” value ([6]; P. acnes PIE, set II) was “pos” and the “Inhibition of Hydrogen peroxide” value ([6]; P. acnes RON, set II) was “pos”.
